Test results: article PMC12516390 (ACS Medicinal Chemistry Letters, 2025)
Like-named read-outs stand apart in the source and are kept apart here.

Experiments:
[1] = target: Human Recombinant Cathepsin L (Homo sapiens, UniProt P07711); assay: Cathepsin selectivity screening, Cat L (Z-Phe-Arg-AMC); format: biochemical; details: Z-Phe-Arg-AMC substrate; Table 5; read-out: IC50 (μM) CatL
[2] = target: Human Recombinant Cathepsin S (Homo sapiens, UniProt P25774); assay: Cathepsin selectivity screening, Cat S (Z-Val-Val-Arg-AMC); format: biochemical; details: Z-Val-Val-Arg-AMC substrate; Table 5; read-out: IC50 (μM) CatS
[3] = target: recombinant M^Pro (Severe acute respiratory syndrome coronavirus 2, UniProt P0DTD1); assay: SARS-CoV-2 Mpro screening and IC50 determination (QS1 fluorogenic substrate, Drag assay); format: biochemical; details: for inhibition at 10 µM: read-out: M^Pro (%inh)@10μM
[4] = target: T1, Human Recombinant Cathepsin K (Homo sapiens, UniProt P43235); assay: Cathepsin selectivity screening, Cat K (Z-Phe-Arg-AMC); format: biochemical; details: Z-Phe-Arg-AMC substrate; Table 5; read-out: IC50 (μM) CatK
T1 sequence (P43235 115-329): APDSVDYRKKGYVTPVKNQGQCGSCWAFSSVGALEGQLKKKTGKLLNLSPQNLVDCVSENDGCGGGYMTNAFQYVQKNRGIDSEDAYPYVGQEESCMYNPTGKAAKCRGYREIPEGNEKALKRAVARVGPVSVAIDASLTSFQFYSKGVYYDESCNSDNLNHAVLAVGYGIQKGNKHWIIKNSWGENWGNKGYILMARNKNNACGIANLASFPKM

[5] = target: Human Recombinant Cathepsin B (Homo sapiens, UniProt P07858); assay: Cathepsin selectivity screening, Cat B (Z-Phe-Arg-AMC); format: biochemical; details: Z-Phe-Arg-AMC substrate; Table 5; read-out: IC50 (μM) CatB
[6] = in vitro; details: African monkey
[7] = target: PL^Pro (Severe acute respiratory syndrome coronavirus 2, UniProt P0DTD1); assay: SARS-CoV-2 PLpro screening (Ac-LRGG-ACC substrate); format: biochemical; details: read-out: PL^Pro (%inh)@10μM
[8] = IC50 (μM) M^Pro, recombinant M^Pro, 20 μM QS1 substrate, Table 5
[9] = M^Pro IC50 (μM), recombinant M^Pro, 20 μM QS1 (Ac-Abu-Tle-Leu-Gln-ACC) substrate, Table 1
[10] = recombinant M^Pro, 20 μM QS1 (Ac-Abu-Tle-Leu-Gln-ACC) substrate, Table 1, read-out: M^Pro IC50
[11] = M^Pro IC50 (μM), recombinant M^Pro, 20 μM QS1 substrate, Table 3

Chain of Human Recombinant Cathepsin S (P25774 115-331): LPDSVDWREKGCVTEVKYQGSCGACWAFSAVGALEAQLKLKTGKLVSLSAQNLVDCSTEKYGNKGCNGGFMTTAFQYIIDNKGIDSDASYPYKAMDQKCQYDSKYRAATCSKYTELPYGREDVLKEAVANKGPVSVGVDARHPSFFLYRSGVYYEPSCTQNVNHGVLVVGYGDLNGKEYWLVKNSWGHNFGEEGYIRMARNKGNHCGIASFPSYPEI
Chain of Human Recombinant Cathepsin L (P07711 114-333): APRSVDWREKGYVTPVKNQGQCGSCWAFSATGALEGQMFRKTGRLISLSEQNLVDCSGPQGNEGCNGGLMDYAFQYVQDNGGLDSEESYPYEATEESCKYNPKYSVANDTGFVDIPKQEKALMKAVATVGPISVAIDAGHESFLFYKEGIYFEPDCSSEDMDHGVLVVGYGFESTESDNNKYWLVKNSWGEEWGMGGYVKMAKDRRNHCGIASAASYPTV

| Compound | CC50 [6] [nM] | inhibition at 10 µM [3] [%] | inhibition at 10 µM [7] [%] | IC50 [3, 10] [µM] | also measured |
| --- | --- | --- | --- | --- | --- |
| COc1cccc(-c2ccc(C(=O)N[C@@H](CC3CCCCC3)C(=O)N[C@H](C#N)C[C@@H]3CCNC3=O)c(F)c2)c1 [23b] |  |  |  |  | IC50 [1]: > 10 µM; IC50 [2]: 0.059 µM; IC50 [3, 8]: 0.691 µM; IC50 [4]: 1.34 µM; IC50 [5]: 0.238 µM |
| COc1ccc(-c2ccc(C(=O)N3C[C@@H]4CCC[C@@H]4[C@H]3C(=O)N[C@H](C#N)C[C@@H]3CCNC3=O)c(Cl)c2)cc1 [22k] |  |  |  |  | IC50 [1]: > 10 µM; IC50 [2]: 0.718 µM; IC50 [3, 8]: 0.743 µM; IC50 [4]: 0.68 µM; IC50 [5]: > 10 µM |
| COc1ccc(-c2ccc(C(=O)N[C@@H](CC3CCCCC3)C(=O)N[C@H](C#N)C[C@@H]3CCNC3=O)c(Cl)c2)cc1 [23c] | > 100000 |  |  |  | IC50 [1]: > 10 µM; IC50 [2]: 0.011 µM; IC50 [3, 8]: 0.077 µM; IC50 ([3]; M^Pro IC50 (μM), recombinant M^Pro, Table 6): 0.077 µM; IC50 [4]: 1.52 µM; IC50 [5]: 0.104 µM |
| COc1cccc(-c2ccc(C(=O)N3C[C@@H]4CCC[C@@H]4[C@H]3C(=O)N[C@H](C#N)C[C@@H]3CCNC3=O)c(Cl)c2)c1 [22l] |  |  |  |  | IC50 [1]: > 10 µM; IC50 [2]: 0.538 µM; IC50 [3, 8]: 1.06 µM; IC50 [4]: 1.07 µM; IC50 [5]: > 10 µM |
| COc1cccc(-c2ccc(C(=O)N[C@@H](CC(C)C)C(=O)N[C@H](C#N)C[C@@H]3CCNC3=O)cc2)c1 [6e] | > 100000 | > 95 | < 50 |  | IC50 ([3]; M^Pro IC50 (μM), Table 2): 0.786 µM; IC50 [3, 9]: 0.786 µM |
| COc1cccc(-c2ccc(C(=O)N[C@@H](CC3CCCCC3)C(=O)N[C@H](C#N)C[C@@H]3CCNC3=O)cc2)c1 [12k] |  | < 95 | < 50 |  | IC50 [1]: > 10 µM; IC50 [2]: 0.011 µM; IC50 [3, 9]: 2.01 µM; IC50 [4]: > 10 µM; IC50 [5]: > 10 µM |
| CC(C)C[C@H](NC(=O)c1ccc(-c2cccc3nn(C)cc23)cc1)C(=O)N[C@H](C#N)C[C@@H]1CCNC1=O [6j] | > 100000 | > 95 | < 50 |  | IC50 ([3]; M^Pro IC50 (μM), Table 2): 0.622 µM; IC50 [3, 9]: 0.622 µM |
| Cn1cc2c(-c3ccc(C(=O)N[C@@H](CC4CCCCC4)C(=O)N[C@H](C#N)C[C@@H]4CCNC4=O)cc3)cccc2n1 [12n] |  | < 95 | < 50 | 1.28 |  |
| COc1ccc(-c2ccc(C(=O)N[C@@H](CC(C)C)C(=O)N[C@H](C#N)C[C@@H]3CCNC3=O)cc2)cn1 [6k] |  | > 95 | < 50 | 1.21 | IC50 ([3]; read-out: M^Pro IC50): > 1 µM |
| CC(C)C[C@H](NC(=O)c1ccc(-c2ccc3cnn(C)c3c2)cc1)C(=O)N[C@H](C#N)C[C@@H]1CCNC1=O [6n] |  | > 95 | < 50 | 0.653 |  |
| CCC[C@H](NC(=O)c1ccc(-c2cncc(Cl)c2)cc1)C(=O)N[C@H](C#N)C[C@@H]1CCNC1=O [12h] |  | > 95 | < 50 | 8.95 |  |
| N#CC(CC1CCNC1=O)NC(=O)C(CC1CCCCC1)NC(=O)c1ccc(Br)cc1 (stereo not drawn) [11d] |  | < 95 | < 50 |  |  |
| CC(C)C[C@H](NC(=O)c1ccc(-c2ccc(F)cc2)cc1)C(=O)N[C@H](C#N)C[C@@H]1CCNC1=O [6b] |  | > 95 | < 50 | 0.849 | activity / biochemical potency against M^Pro (in words) [3]: submicromolar |
| COc1ccc(-c2ccc(C(=O)N[C@@H](CC(C)C)C(=O)N[C@H](C#N)C[C@@H]3CCNC3=O)c(C)c2)cc1 [18k] | > 100000 |  |  |  | IC50 [3, 11]: 0.085 µM |
| CCC[C@H](NC(=O)c1ccc(-c2cccc(OCC)c2)cc1)C(=O)N[C@H](C#N)C[C@@H]1CCNC1=O [12i] |  | > 95 | < 50 | 4.86 |  |
| CCC[C@H](NC(=O)c1ccc(-c2ccccc2OC)cc1)C(=O)N[C@H](C#N)C[C@@H]1CCNC1=O [12d] |  | < 95 | < 50 |  |  |
| CCOc1cccc(-c2ccc(C(=O)N[C@@H](CC(C)C)C(=O)N[C@H](C#N)C[C@@H]3CCNC3=O)cc2)c1 [6i] |  | > 95 | < 50 | 0.798 |  |
| COc1ccc(-c2ccc(C(=O)N[C@@H](CC(C)C)C(=O)N[C@H](C#N)C[C@@H]3CCNC3=O)c(C(F)(F)F)c2)cc1 [18m] | 70600 |  |  |  | IC50 [3, 11]: 0.096 µM |
| CC(C)C[C@H](NC(=O)c1ccc(-c2ccc3cnn(C)c3c2)cc1Cl)C(=O)N[C@H](C#N)C[C@@H]1CCNC1=O [18q] | 77400 |  |  |  | IC50 [3, 11]: 0.053 µM |
| CCOc1ccc(-c2ccc(C(=O)N[C@@H](CC(C)C)C(=O)N[C@H](C#N)C[C@@H]3CCNC3=O)cc2)cc1 [6c] |  | > 95 | < 50 | 0.765 |  |

| Compound | CC50 [6] [nM] | inhibition at 10 µM [3] [%] | inhibition at 10 µM [7] [%] | IC50 [3, 10] [µM] | also measured |
| --- | --- | --- | --- | --- | --- |
| COc1ccc(-c2ccc(C(=O)N[C@@H](CC3CCCCC3)C(=O)N[C@H](C#N)C[C@@H]3CCNC3=O)c(F)c2)cc1 [23a] |  |  |  |  | IC50 [1]: > 10 µM; IC50 [2]: 0.016 µM; IC50 [3, 8]: 0.807 µM; IC50 [4]: > 10 µM; IC50 [5]: > 10 µM |
| CC(C)C[C@H](NC(=O)c1ccc(-c2ccc3c(cnn3C)c2)cc1F)C(=O)N[C@H](C#N)C[C@@H]1CCNC1=O [18c] | > 100000 |  |  |  | IC50 [3, 11]: 0.307 µM |
| CCC[C@H](NC(=O)c1ccc(-c2ccc(OC)c(OC)c2)cc1)C(=O)N[C@H](C#N)C[C@@H]1CCNC1=O [12g] |  | > 95 | < 50 | 9.55 |  |
| COc1ccc(-c2ccc(C(=O)N[C@@H](CC3CCCCC3)C(=O)N[C@H](C#N)C[C@@H]3CCNC3=O)cc2)cc1 [12l] |  | < 95 | < 50 |  | IC50 [1]: > 10 µM; IC50 [2]: 0.006 µM; IC50 [3, 9]: 1.76 µM; IC50 [4]: 1.64 µM; IC50 [5]: > 10 µM |
| CC(C)C[C@@H](NC(=O)c1ccc(-c2ccc(F)nc2)cc1)C(=O)N[C@H](C#N)C[C@@H]1CCNC1=O [12c] |  | > 95 | < 50 | 5.83 |  |
| CCC[C@H](NC(=O)c1ccc(-c2ccc(OC)nc2)cc1)C(=O)N[C@H](C#N)C[C@@H]1CCNC1=O [12j] |  | < 95 | < 50 |  |  |
| COc1ccc(-c2ccc(C(=O)N[C@@H](CC(C)C)C(=O)N[C@H](C#N)C[C@@H]3CCNC3=O)cc2)cc1 [6d] |  | > 95 | < 50 | 0.735 |  |
| CCC[C@H](NC(=O)c1ccc(-c2ccc(OC)cc2)cc1)C(=O)N[C@H](C#N)C[C@@H]1CCNC1=O [12f] |  | > 95 | < 50 | 5.48 |  |
| CC(C)C[C@H](NC(=O)c1ccc(-c2cccc3nn(C)cc23)cc1Cl)C(=O)N[C@H](C#N)C[C@@H]1CCNC1=O [18p] | > 100000 |  |  |  | IC50 [3, 11]: 0.068 µM |
| CC(C)C[C@@H](NC(=O)c1ccc(-c2ccc(Cl)cc2)cc1)C(=O)N[C@H](C#N)C[C@@H]1CCNC1=O [12a] |  | > 95 | < 50 | 3.24 |  |
| CC(C)(C)[C@H](NC(=O)C(F)(F)F)C(=O)N1C[C@H]2[C@@H]([C@H]1C(=O)N[C@H](C#N)C[C@@H]1CCNC1=O)C2(C)C [nirmatrelvir, reference compound] | > 100000 |  |  |  |  |
| COc1ccc(-c2ccc(C(=O)N[C@@H](CC(C)C)C(=O)N[C@H](C#N)C[C@@H]3CCNC3=O)cc2)cc1OC [6f] | > 100000 | > 95 | < 50 |  | IC50 ([3]; M^Pro IC50 (μM), Table 2): 0.859 µM; IC50 [3, 9]: 0.859 µM |
| CC(C)C[C@H](NC(=O)c1ccc(-c2ccc3c(cnn3C)c2)cc1Cl)C(=O)N[C@H](C#N)C[C@@H]1CCNC1=O [18o] | 83500 |  |  |  | IC50 [3, 11]: 0.052 µM |
| COc1ccc(-c2ccc(C(=O)N[C@@H](CC3CCCCC3)C(=O)N[C@H](C#N)C[C@@H]3CCNC3=O)cc2)cc1OC [12m] |  | < 95 | < 50 | 2.11 |  |
| COc1ccc(-c2ccc(C(=O)NC3(C(=O)N[C@H](C#N)C[C@@H]4CCNC4=O)CCCCC3)cc2)cc1 [12p] |  | > 95 | < 50 |  |  |
| CC(C)C[C@@H](NC(=O)c1ccc(Br)cc1)C(=O)N[C@H](C#N)C[C@@H]1CCNC1=O [11b] |  | < 95 | < 50 |  |  |
| CCCC(NC(=O)c1ccc(Br)cc1)C(=O)NC(C#N)CC1CCNC1=O (stereo not drawn) [11c] |  | < 95 | < 50 |  |  |
| CC(C)C[C@H](NC(=O)c1ccc(-c2ccc3c(cnn3C)c2)cc1)C(=O)N[C@H](C#N)C[C@@H]1CCNC1=O [6l] | > 100000 | > 95 | < 50 |  | IC50 ([3]; read-out: M^Pro IC50, Table 2): 0.56 µM; IC50 ([3]; read-out: M^Pro IC50, recombinant M^Pro, 20 μM QS1 (Ac-Abu-Tle-Leu-Gln-ACC) substrate, Table 1): 0.56 µM |
| N#C[C@H](C[C@@H]1CCNC1=O)NC(=O)C1(NC(=O)c2ccc(Br)cc2)CCCCC1 [11e] |  | > 95 | < 50 |  |  |
